Reference: patent US20030186434A1, “Method of forming vertebrate pancreas in vitro” (priority 2002, published 2003)

Tested on: blastopore upper lip of early gastrula of a Xenopus
Test: Tissue differentiation of blastopore upper lip treated with retinoic acid for three hours, light microscopy
Settings: treated 3 hours, cultured 10 days

CC1=C(/C=C/C(C)=C/C=C/C(C)=C/C(=O)O)C(C)(C)CCC1 [Retinoic acid, retinoic acid]
Atypical epidermis differentiated, specimens (%) (10^−3 M, 12 specimens): 0 (0) | Cartilage differentiated, specimens (%) (10^−3 M, 12 specimens): 0 (0) | Cement gland differentiated, specimens (%) (10^−3 M, 12 specimens): 0 (0) | Coelomic epithelium differentiated, specimens (%) (10^−3 M, 12 specimens): 6 (50) | Ear vesicle differentiated, specimens (%) (10^−3 M, 12 specimens): 0 (0) | Epidermis differentiated, specimens (%) (10^−3 M, 12 specimens): 10 (83) | Eye or its fragments differentiated, specimens (%) (10^−3 M, 12 specimens): 0 (0) | Gastric gland differentiated, specimens (%) (10^−3 M, 12 specimens): 0 (0) | Hemocyte differentiated, specimens (%) (10^−3 M, 12 specimens): 0 (0) | Intestinal epithelium differentiated, specimens (%) (10^−3 M, 12 specimens): 12 (100) | Mesenchyme differentiated, specimens (%) (10^−3 M, 12 specimens): 12 (100) | Muscle differentiated, specimens (%) (10^−3 M, 12 specimens): 0 (0) | Neural tissue differentiated, specimens (%) (10^−3 M, 12 specimens): 0 (0) | Notochord differentiated, specimens (%) (10^−3 M, 12 specimens): 11 (92) | Pancreas differentiated, specimens (%) (10^−3 M, 12 specimens): 11 (92) | Pharyngeal epithelium differentiated, specimens (%) (10^−3 M, 12 specimens): 10 (83) | Pronephros differentiated, specimens (%) (10^−3 M, 12 specimens): 0 (0) | Yolk-rich cell differentiated, specimens (%) (10^−3 M, 12 specimens): 11 (92) | Atypical epidermis differentiated, specimens (%) (10^−4 M, 35 specimens): 0 (0) | Cartilage differentiated, specimens (%) (10^−4 M, 35 specimens): 0 (0) | Cement gland differentiated, specimens (%) (10^−4 M, 35 specimens): 0 (0) | Coelomic epithelium differentiated, specimens (%) (10^−4 M, 35 specimens): 5 (14) | Ear vesicle differentiated, specimens (%) (10^−4 M, 35 specimens): 0 (0) | Epidermis differentiated, specimens (%) (10^−4 M, 35 specimens): 8 (23) | Eye or its fragments differentiated, specimens (%) (10^−4 M, 35 specimens): 0 (0) | Gastric gland differentiated, specimens (%) (10^−4 M, 35 specimens): 0 (0) | Hemocyte differentiated, specimens (%) (10^−4 M, 35 specimens): 0 (0) | Intestinal epithelium differentiated, specimens (%) (10^−4 M, 35 specimens): 34 (97) | Mesenchyme differentiated, specimens (%) (10^−4 M, 35 specimens): 32 (91) | Muscle differentiated, specimens (%) (10^−4 M, 35 specimens): 7 (20) | Neural tissue differentiated, specimens (%) (10^−4 M, 35 specimens): 0 (0) | Notochord differentiated, specimens (%) (10^−4 M, 35 specimens): 33 (94) | Pancreas differentiated, specimens (%) (10^−4 M, 35 specimens): 25 (71) | Pharyngeal epithelium differentiated, specimens (%) (10^−4 M, 35 specimens): 21 (60) | Pronephros differentiated, specimens (%) (10^−4 M, 35 specimens): 0 (0) | Yolk-rich cell differentiated, specimens (%) (10^−4 M, 35 specimens): 29 (83) | Atypical epidermis differentiated, specimens (%) (10^−5 M, 35 specimens): 0 (0) | Cartilage differentiated, specimens (%) (10^−5 M, 35 specimens): 3 (9) | Cement gland differentiated, specimens (%) (10^−5 M, 35 specimens): 0 (0) | Coelomic epithelium differentiated, specimens (%) (10^−5 M, 35 specimens): 5 (14) | Ear vesicle differentiated, specimens (%) (10^−5 M, 35 specimens): 0 (0) | Epidermis differentiated, specimens (%) (10^−5 M, 35 specimens): 13 (37) | Eye or its fragments differentiated, specimens (%) (10^−5 M, 35 specimens): 0 (0) | Gastric gland differentiated, specimens (%) (10^−5 M, 35 specimens): 9 (26) | Hemocyte differentiated, specimens (%) (10^−5 M, 35 specimens): 0 (0) | Intestinal epithelium differentiated, specimens (%) (10^−5 M, 35 specimens): 33 (94) | Mesenchyme differentiated, specimens (%) (10^−5 M, 35 specimens): 20 (57) | Muscle differentiated, specimens (%) (10^−5 M, 35 specimens): 4 (11) | Neural tissue differentiated, specimens (%) (10^−5 M, 35 specimens): 1 (3) | Notochord differentiated, specimens (%) (10^−5 M, 35 specimens): 25 (71) | Pancreas differentiated, specimens (%) (10^−5 M, 35 specimens): 15 (43) | Pharyngeal epithelium differentiated, specimens (%) (10^−5 M, 35 specimens): 19 (54) | Pronephros differentiated, specimens (%) (10^−5 M, 35 specimens): 12 (34) | Yolk-rich cell differentiated, specimens (%) (10^−5 M, 35 specimens): 30 (86) | Atypical epidermis differentiated, specimens (%) (10^−6 M, 35 specimens): 0 (0) | Cartilage differentiated, specimens (%) (10^−6 M, 35 specimens): 22 (63) | Cement gland differentiated, specimens (%) (10^−6 M, 35 specimens): 0 (0) | Coelomic epithelium differentiated, specimens (%) (10^−6 M, 35 specimens): 12 (34) | Ear vesicle differentiated, specimens (%) (10^−6 M, 35 specimens): 0 (0) | Epidermis differentiated, specimens (%) (10^−6 M, 35 specimens): 34 (97) | Eye or its fragments differentiated, specimens (%) (10^−6 M, 35 specimens): 0 (0) | Gastric gland differentiated, specimens (%) (10^−6 M, 35 specimens): 1 (3) | Hemocyte differentiated, specimens (%) (10^−6 M, 35 specimens): 0 (0) | Intestinal epithelium differentiated, specimens (%) (10^−6 M, 35 specimens): 4 (11) | Mesenchyme differentiated, specimens (%) (10^−6 M, 35 specimens): 35 (100) | Muscle differentiated, specimens (%) (10^−6 M, 35 specimens): 20 (57) | Neural tissue differentiated, specimens (%) (10^−6 M, 35 specimens): 15 (43) | Notochord differentiated, specimens (%) (10^−6 M, 35 specimens): 30 (86) | Pancreas differentiated, specimens (%) (10^−6 M, 35 specimens): 1 (3) | Pharyngeal epithelium differentiated, specimens (%) (10^−6 M, 35 specimens): 34 (97) | Pronephros differentiated, specimens (%) (10^−6 M, 35 specimens): 0 (0) | Yolk-rich cell differentiated, specimens (%) (10^−6 M, 35 specimens): 31 (89) | Atypical epidermis differentiated, specimens (%) (10^−7 M, 32 specimens): 0 (0) | Cartilage differentiated, specimens (%) (10^−7 M, 32 specimens): 16 (50) | Cement gland differentiated, specimens (%) (10^−7 M, 32 specimens): 0 (0) | Coelomic epithelium differentiated, specimens (%) (10^−7 M, 32 specimens): 5 (16) | Ear vesicle differentiated, specimens (%) (10^−7 M, 32 specimens): 0 (0) | Epidermis differentiated, specimens (%) (10^−7 M, 32 specimens): 31 (97) | Eye or its fragments differentiated, specimens (%) (10^−7 M, 32 specimens): 0 (0) | Gastric gland differentiated, specimens (%) (10^−7 M, 32 specimens): 0 (0) | Hemocyte differentiated, specimens (%) (10^−7 M, 32 specimens): 0 (0) | Intestinal epithelium differentiated, specimens (%) (10^−7 M, 32 specimens): 1 (3) | Mesenchyme differentiated, specimens (%) (10^−7 M, 32 specimens): 32 (100) | Muscle differentiated, specimens (%) (10^−7 M, 32 specimens): 24 (75) | Neural tissue differentiated, specimens (%) (10^−7 M, 32 specimens): 9 (28) | Notochord differentiated, specimens (%) (10^−7 M, 32 specimens): 31 (97) | Pancreas differentiated, specimens (%) (10^−7 M, 32 specimens): 0 (0) | Pharyngeal epithelium differentiated, specimens (%) (10^−7 M, 32 specimens): 30 (94) | Pronephros differentiated, specimens (%) (10^−7 M, 32 specimens): 0 (0) | Yolk-rich cell differentiated, specimens (%) (10^−7 M, 32 specimens): 24 (75) | Atypical epidermis differentiated, specimens (%) (10^−8 M, 20 specimens): 0 (0) | Cartilage differentiated, specimens (%) (10^−8 M, 20 specimens): 5 (25) | Cement gland differentiated, specimens (%) (10^−8 M, 20 specimens): 0 (0) | Coelomic epithelium differentiated, specimens (%) (10^−8 M, 20 specimens): 3 (15) | Ear vesicle differentiated, specimens (%) (10^−8 M, 20 specimens): 0 (0) | Epidermis differentiated, specimens (%) (10^−8 M, 20 specimens): 20 (100) | Eye or its fragments differentiated, specimens (%) (10^−8 M, 20 specimens): 0 (0) | Gastric gland differentiated, specimens (%) (10^−8 M, 20 specimens): 0 (0) | Hemocyte differentiated, specimens (%) (10^−8 M, 20 specimens): 0 (0) | Intestinal epithelium differentiated, specimens (%) (10^−8 M, 20 specimens): 0 (0) | Mesenchyme differentiated, specimens (%) (10^−8 M, 20 specimens): 20 (100) | Muscle differentiated, specimens (%) (10^−8 M, 20 specimens): 17 (85) | Neural tissue differentiated, specimens (%) (10^−8 M, 20 specimens): 2 (10) | Notochord differentiated, specimens (%) (10^−8 M, 20 specimens): 18 (90) | Pancreas differentiated, specimens (%) (10^−8 M, 20 specimens): 2 (10) | Pharyngeal epithelium differentiated, specimens (%) (10^−8 M, 20 specimens): 17 (85) | Pronephros differentiated, specimens (%) (10^−8 M, 20 specimens): 0 (0) | Yolk-rich cell differentiated, specimens (%) (10^−8 M, 20 specimens): 16 (80)
